Here are results for 15 compounds from patent US20260091026A1, “METHODS OF TREATING INFLAMMATORY DISEASES” (INTERLINE THERAPEUTICS, INC., priority 2023, published 2026).

The subject of experiment [1] is THP1-Dual cells, NF-κB pathway (SEAP). Put plainly: THP-1 Dual cell SEAP assay (L18-MDP stimulated). The class given is cell-based. As to conditions: Homo sapiens, 10 ng/mL L18-MDP, 20-24 h, SEAP readout, read-out: IFNγ THP1 IC50. On the procedure: THP1-Dual™ cells (InvivoGen Cat #thpd-nfis) allow simultaneous assessment of the NF-κB pathway, by monitoring the activity of secreted embryonic alkaline phosphatase (SEAP) as well as the IRF pathway, by assessing the activity of a secreted luciferase (Lucia). Cells were cultured according to manufacturers' recommendations. For the assay, cell concentration was adjusted to 7.14×10^5 cells/mL in assay media (RPMI 1640, 2 mM L-Glutamine, 25 mM HEPES, 10% fetal bovine serum (heat-inactivated for 30 min at 56° C.), Pen-Strep (100 U/mL)) and 35 μL of cell suspension (˜25,000 cells) per well were added to a flat bottom 384-well plate (white opaque). Plate was centrifuged at 300 g for 2 min, compounds were added in serial dilution series according to the plate layout (volumes ˜500 nL-0.0152 nL) and plate was incubated at 37° C. in 5% CO2 for 30 min. Using assay media, a L18-MDP stock solution, that results in a final concentration of 10 ng/mL L18-MDP in each well when adding 15 μL to each well, was prepared. 15 μL of L18-MDP stock solution was added to each well, while 15 μL of assay media was added to the negative control wells. Plates were subsequently incubated at 37° C. in 5% CO2 overnight (20-24 h).
For the SEAP assay: without disturbing the cells at the bottom of the well, 15 μL supernatant was transferred to a clear 384-well flat bottom plate and 35 μL QUANTI-Blue Solution per well was added. Following a 2 h incubation at 37° C., the optical density (OD) was measured at 620-655 nm using a microplate reader (PheraStar FS microplate reader with protocol for OD 620-655 nm).
Values of media-only wells were subtracted and % inhibition for each compound concentration relative to the DMSO/L18-MDP-treated controls was calculated. Inhibition values+/−SD were fitted by non-linear regression using Prism software (GraphPad PRISM Software) to calculate IC50 values.

In the next experiment the target is T1, RIPK2 (KD)/XIAP (BIR2) (Homo sapiens, UniProt O43353).
T1 construct: made in house; host or cells: baculovirus-infected Sf9 cells
Put plainly: RIPK2-XIAP binding competition PPI assay (TR-FRET). Conditions: for Emax: 50 nM of GSK583 = -100% activity, read-out: PPI Amax; for IC50: GST-RIPK2 / His-XIAP (BIR2)-avi, 120 min at 23° C. The source says:
The ability of selected compounds of Formula (I) to inhibit the binding of an His-XIAP (BIR2)-avi fusion protein to a GST-RIPK2 fusion protein was quantified employing the TR-FRET-based competition assay as described in the following paragraphs.
Recombinant fusion protein of N-terminal Glutathione-S-Transferase (GST) and a fragment of human RIPK2 (amino acids 1-310 of accession number 043353), expressed in baculovirus infected Sf9 cells, purified via glutathione affinity chromatography, was used as GST-RIPK2 fusion protein. Recombinant fusion protein of N-terminal 6xHistidine (His), a fragment of human XIAP (amino acids 152-231 of accession number P98170), and C-terminal avi tag, expressed in baculovirus infected Sf9 cells, purified via Nickel NTA affinity chromatography, was used as the His-XIAP (BIR2)-avi fusion protein.
For the assay, a working solution of 1 nM GST-RIPK2, 25 nM His-XIAP (BIR2)-avi, 6 nM Anti-His-XL665 […] (Revvity Catalogue No. 61HISXLB), and 0.5 nM Anti-GST-Tb(Revvity Catalogue No. 61GSTTLB) in 25 mM Tris-HCl 7.5, 0.5 mM ethylene glycol-bis(2-aminoethylether)-N,N,N′,N′-tetraacetic acid (EGTA), 10 mM magnesium chloride (MgCl2), 2.5 mM dithiothreitol (DTT), 0.01% (w/v) bovine serum albumin (BSA), 0.005% (w/v) Pluronic F-127 (Sigma), 0.5 mM sodium ortho-vanadate, 5 mM-Glycerophosphate disodium salt hydrate (BGP) was prepared. 50 nL of a 100-fold concentrated solution of each test compound in DMSO was dispensed via acoustic dispensing into a white low volume 384-well microtiter plate (Perkin Elmer Catalogue No. 6008280). Subsequently, 5 μL of the assay working solution were added.
The resulting mixture was incubated 120 min at 23° C. Subsequently, the amount of complex formed by the GST-RIPK2, XIAP (BIR2)-avi, Anti-His-XL665, and Anti-GST-Tb was evaluated by measurement of the resonance energy transfer from the Tb-cryptate to the XL665. Therefore, the fluorescence emissions at 520 nm and 665 nm after excitation at 337 nm were measured in a TR-FRET reader, e.g. a Pherastar FS(BMG Labtechnologies, Offenburg, Germany) or an Envision (PerkinElmer). The ratio of the emissions at 665 nm and at 520 nm was taken as the measure of the amount of the complex. The data were normalized (assay reaction without inhibitor=0% activity, 50 nM of GSK583=−100% activity).
(In TR-FRET formats the signal depends on donor and acceptor labels being close together.)

T1 sequence (O43353 1-310): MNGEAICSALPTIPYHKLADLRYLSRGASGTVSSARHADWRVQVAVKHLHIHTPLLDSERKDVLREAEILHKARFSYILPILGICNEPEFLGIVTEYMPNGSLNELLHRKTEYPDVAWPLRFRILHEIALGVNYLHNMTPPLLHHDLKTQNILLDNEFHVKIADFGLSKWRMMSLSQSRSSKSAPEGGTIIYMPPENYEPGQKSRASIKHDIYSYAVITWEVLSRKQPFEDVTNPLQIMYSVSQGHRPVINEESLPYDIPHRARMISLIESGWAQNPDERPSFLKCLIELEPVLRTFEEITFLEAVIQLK

Take `COc1cc2ncc(-c3cc(C(=O)N[C@H](C)c4ncccc4F)n(C)n3)n2cc1S(=O)(=O)C(C)(C)C` [Example 50, (R)-3-(6-(tert-butylsulfonyl)-7-methoxyimidazo[1,2-a]pyridin-3-yl)-N-(1-(3-fluoropyridin-2-yl)ethyl)-1-methyl-1H-pyrazole-5-carboxamide]: the 50% inhibitory concentration (IC50) in experiment [1] fell in the range of 100 to 500 nM. Further, at RIPK2 (KD)/XIAP (BIR2), the Emax was not below 80% and the 50% inhibitory concentration (IC50) lay within 10 to 100 nM.

As to `COc1cc2ncc(-c3cc(C(=O)N[C@H](C)c4ncccc4F)n(C4CN(C)C4)n3)n2cc1S(=O)(=O)C(C)(C)C` [Example 147, (R)-3-(6-(tert-butylsulfonyl)-7-methoxyimidazo[1,2-a]pyridin-3-yl)-N-(1-(3-fluoropyridin-2-yl)ethyl)-1-(1-methylazetidin-3-yl)-1H-pyrazole-5-carboxamide], the IC50 in experiment [1] was 500 to 2500 nM. In addition, on RIPK2 (KD)/XIAP (BIR2), the Emax is not below 80% and the half-inhibitory concentration (IC50) lay within 100 to 1000 nM.

As to `CCn1nc(-c2cnc3cc(OCCO)c(S(=O)(=O)C(C)(C)C)cn23)cc1C(=O)N[C@H](C)c1ncccn1` [Example 119, (R)-3-(6-(tert-butylsulfonyl)-7-(2-hydroxyethoxy)imidazo[1,2-a]pyridin-3-yl)-1-ethyl-N-(1-(pyrimidin-2-yl)ethyl)-1H-pyrazole-5-carboxamide], the IC50 in experiment [1] was less than 100 nM. Also, at RIPK2 (KD)/XIAP (BIR2), the Emax was not below 80% and the IC50 was less than 10 nM.

Consider `CCn1nc(-c2cnc3cc(OC)c(S(=O)(=O)C(C)(C)C)cn23)cc1C(=O)N[C@H](C)c1nccs1` [Example 98, (R)-3-(6-(tert-butylsulfonyl)-7-methoxyimidazo[1,2-a]pyridin-3-yl)-1-ethyl-N-(1-(thiazol-2-yl)ethyl)-1H-pyrazole-5-carboxamide], for which the IC50 in experiment [1] is less than 100 nM. Further, on RIPK2 (KD)/XIAP (BIR2), the Emax is not below 80% and the half-inhibitory concentration (IC50) was less than 10 nM.

As to `COc1cc2ncc(-c3cc(C(=O)NCc4nc(C)c(C)s4)n(C)n3)n2cc1S(=O)(=O)C(C)(C)C` [Example 92, 3-(6-(tert-butylsulfonyl)-7-methoxyimidazo[1,2-a]pyridin-3-yl)-N-((4,5-dimethylthiazol-2-yl)methyl)-1-methyl-1H-pyrazole-5-carboxamide], the 50% inhibitory concentration (IC50) in experiment [1] was more than 2500 nM. In addition, on RIPK2 (KD)/XIAP (BIR2), the Emax was not below 80% and the IC50 is 100 to 1000 nM.

`CCn1nc(-c2cnc3cc(OCCO)c(S(=O)(=O)C(C)(C)C)cn23)cc1C(=O)N[C@@H](C)c1cc(C)sn1` [Example 133, (S)-3-(6-(tert-butylsulfonyl)-7-(2-hydroxyethoxy)imidazo[1,2-a]pyridin-3-yl)-1-ethyl-N-(1-(5-methylisothiazol-3-yl)ethyl)-1H-pyrazole-5-carboxamide]: the IC50 in experiment [1] lay within 500 to 2500 nM. For the same compound, at RIPK2 (KD)/XIAP (BIR2), the Emax was not below 80% and the IC50 fell in the range of 100 to 1000 nM.

As for `COc1cc2ncc(-c3cc(C(=O)N[C@H](C)c4nccs4)n(C)n3)n2cc1S(=O)(=O)C(C)(C)C` [Example 93, (R)-3-(6-(tert-butylsulfonyl)-7-methoxyimidazo[1,2-a]pyridin-3-yl)-1-methyl-N-(1-(thiazol-2-yl)ethyl)-1H-pyrazole-5-carboxamide], the half-maximal inhibitory concentration (IC50) in experiment [1] was in the range of 100 to 500 nM. Also, on RIPK2 (KD)/XIAP (BIR2), the Emax was not below 80% and the IC50 was in the range of 10 to 100 nM.

With `COc1cc2ncc(-c3cc(C(=O)NCc4ccn(C)n4)n(C)n3)n2cc1S(=O)(=O)C(C)(C)C` [Example 24, 3-(6-(tert-butylsulfonyl)-7-methoxyimidazo[1,2-a]pyridin-3-yl)-1-methyl-N-((1-methyl-1H-pyrazol-3-yl)methyl)-1H-pyrazole-5-carboxamide], the IC50 in experiment [1] lay within 500 to 2500 nM. Besides, at RIPK2 (KD)/XIAP (BIR2), the Emax is not below 80% and the IC50 was 100 to 1000 nM.

As to `COc1cc2ncc(-c3cc(C(=O)N[C@H](C)c4ncccc4F)n(C4CN(C(=O)OC(C)(C)C)C4)n3)n2cc1S(=O)(=O)C(C)(C)C` [Example 140, tert-butyl (R)-3-(3-(6-(tert-butylsulfonyl)-7-methoxyimidazo[1,2-a]pyridin-3-yl)-5-((1-(3-fluoropyridin-2-yl)ethyl)carbamoyl)-1H-pyrazol-1-yl)azetidine-1-carboxylate], the 50% inhibitory concentration (IC50) in experiment [1] is 500 to 2500 nM; at RIPK2 (KD)/XIAP (BIR2), 10 to 100 nM. Besides, the Emax on RIPK2 (KD)/XIAP (BIR2) was not below 80%.

On to `CCn1nc(-c2cnc3cc(OC)c(S(=O)(=O)C(C)(C)C)cn23)cc1C(=O)N[C@H](C)c1ncccn1` [Example 96, (R)-3-(6-(tert-butylsulfonyl)-7-methoxyimidazo[1,2-a]pyridin-3-yl)-1-ethyl-N-(1-(pyrimidin-2-yl)ethyl)-1H-pyrazole-5-carboxamide], for which the IC50 was less than 100 nM in experiment [1] and less than 10 nM at RIPK2 (KD)/XIAP (BIR2). Moreover, the Emax on RIPK2 (KD)/XIAP (BIR2) was not below 80%.

In the case of `COc1cc2ncc(-c3cc(C(=O)N[C@H](C)c4ccccn4)n(CCO)n3)n2cc1S(=O)(=O)C(C)(C)C` [Example 142, (R)-3-(6-(tert-butylsulfonyl)-7-methoxyimidazo[1,2-a]pyridin-3-yl)-1-(2-hydroxyethyl)-N-(1-(pyridin-2-yl)ethyl)-1H-pyrazole-5-carboxamide], in experiment [1], the IC50 lay in the range of 500 to 2500 nM. Moreover, on RIPK2 (KD)/XIAP (BIR2), the Emax is not below 80% and the IC50 was in the range of 10 to 100 nM.

Take `COc1cc2ncc(-c3cc(C(=O)NCc4nccn4C)n(C)n3)n2cc1S(=O)(=O)C(C)(C)C` [Example 76, 3-(6-(tert-butylsulfonyl)-7-methoxyimidazo[1,2-a]pyridin-3-yl)-1-methyl-N-((1-methyl-1H-imidazol-2-yl)methyl)-1H-pyrazole-5-carboxamide]: the 50% inhibitory concentration (IC50) in experiment [1] was more than 2500 nM. On RIPK2 (KD)/XIAP (BIR2), the Emax was not above 30% and the IC50 was more than 1000 nM.

Turning to `COc1cc2ncc(-c3cc(C(=O)N[C@H](C)c4ccccc4)n(C)n3)n2cc1S(=O)(=O)C(C)(C)C` [Example 9, (R)-3-(6-(tert-butylsulfonyl)-7-methoxyimidazo[1,2-a]pyridin-3-yl)-1-methyl-N-(1-phenylethyl)-1H-pyrazole-5-carboxamide], the IC50 in experiment [1] is less than 100 nM. Moreover, at RIPK2 (KD)/XIAP (BIR2), the Emax was not below 80% and the half-inhibitory concentration (IC50) was in the range of 10 to 100 nM.

Regarding `COc1cc2ncc(-c3cc(C(=O)N[C@H](C)c4ncccc4F)n(C4CNC4)n3)n2cc1S(=O)(=O)C(C)(C)C` [Example 141, (R)-1-(azetidin-3-yl)-3-(6-(tert-butylsulfonyl)-7-methoxyimidazo[1,2-a]pyridin-3-yl)-N-(1-(3-fluoropyridin-2-yl)ethyl)-1H-pyrazole-5-carboxamide], the half-maximal inhibitory concentration (IC50) in experiment [1] was more than 2500 nM. Further, on RIPK2 (KD)/XIAP (BIR2), the Emax is not below 80% and the IC50 was 100 to 1000 nM.

Turning to `COc1cc2ncc(-c3cc(C(=O)NCc4cc(C)sn4)n(C)n3)n2cc1S(=O)(=O)C(C)(C)C` [Example 87, 3-(6-(tert-butylsulfonyl)-7-methoxyimidazo[1,2-a]pyridin-3-yl)-1-methyl-N-((5-methylisothiazol-3-yl)methyl)-1H-pyrazole-5-carboxamide], the IC50 in experiment [1] was 500 to 2500 nM. At RIPK2 (KD)/XIAP (BIR2), the Emax is not below 80% and the IC50 lay within 10 to 100 nM.

Broadly, the IC50 is the concentration needed to halve the response being measured.
